In patent US20220241264A1, “METHODS FOR PREVENTION AND TREATMENT OF FIBROMYALGIA BY CONTACT VASODILATORS” (priority 2019, published 2022):

Test system: fibromyalgia pain in soft tissue regions and myofacial regions
Conditions: for patient-reported pain levels in the treated regions: daily use in a topical form on skin adjacent to regions where pain is experienced, during treatment; for patient-reported pain levels after treatment is halted: treatment halted after several months, report weeks later
From the text: The following prophetic examples are of cases that address the painful experiences associated with fibromyalgia. The examples also describe a new, safe, simple and until now, an unknown pharmaceutical solution to the problem of fibromyalgia syndrome: the novel use of vasodilators such as calcium channel blockers, ACE inhibitors, and angiotensin receptor blockers. Vasodilators are not analgesics, but they resolve or mitigate the pain associated with fibromyalgia.
A patient is diagnosed with fibromyalgia, and suffers from pain in soft tissue regions and myofacial regions. […] After several months, treatment is halted.
A patient is diagnosed with fibromyalgia, and suffers from pain in soft tissue regions and myofacial regions. Daily use of Amlodipine in a topical form is prescribed for application to skin adjacent to regions where pain is experienced. […] After several months, treatment is halted.
A patient is diagnosed with fibromyalgia, and suffers from pain in soft tissue regions and myofacial regions. Daily use of enalapril in a topical form is prescribed for application to skin adjacent to regions where pain is experienced. […] After several months, treatment is halted.
A patient is diagnosed with fibromyalgia, and suffers from pain in soft tissue regions and myofacial regions. Daily use of lisinopril in a topical form is prescribed for application to skin adjacent to regions where pain is experienced. […] After several months, treatment is halted.
A patient is diagnosed with fibromyalgia, and suffers from pain in soft tissue regions and myofacial regions. Daily use of losartan in a topical form is prescribed for application to skin adjacent to regions where pain is experienced. […] After several months, treatment is halted.
A patient is diagnosed with fibromyalgia, and suffers from pain in soft tissue regions and myofacial regions. Daily use of irbesartan in a topical form is prescribed for application to skin adjacent to regions where pain is experienced. […] After several months, treatment is halted.

Structure (SMILES) | patient-reported pain levels in the treated regions | patient-reported pain levels after treatment is halted
CCCCc1nc(Cl)c(CO)n1Cc1ccc(-c2ccccc2-c2nn[nH]n2)cc1 [losartan] | reduction in pain levels | reduction in pain levels has been maintained
NCCCC[C@H](N[C@@H](CCc1ccccc1)C(=O)O)C(=O)N1CCC[C@H]1C(=O)O [lisinopril] | reduction in pain levels | reduction in pain levels has been maintained
CCCCC1=NC2(CCCC2)C(=O)N1Cc1ccc(-c2ccccc2-c2nnn[nH]2)cc1 [irbesartan] | reduction in pain levels | reduction in pain levels has been maintained
CCOC(=O)[C@H](CCc1ccccc1)N[C@@H](C)C(=O)N1CCC[C@H]1C(=O)O [enalapril] | reduction in pain levels | reduction in pain levels has been maintained
